The record followed here is article doi:10.1101/2023.07.10.548257 (bioRxiv, 2024).

In general, EC50 refers to the concentration that produces a half-maximal response.

The target in the test is T1, full-length SHP2^R138Q (Homo sapiens, UniProt Q06124, R138Q).
T1 construct: Full-length SHP2 constructs were diluted in assay buffer; His6-TEV (N, cleaved yes); made in house; host or cells: E. coli BL21(DE3)
T1 sequence (Q06124 1-593 R138Q): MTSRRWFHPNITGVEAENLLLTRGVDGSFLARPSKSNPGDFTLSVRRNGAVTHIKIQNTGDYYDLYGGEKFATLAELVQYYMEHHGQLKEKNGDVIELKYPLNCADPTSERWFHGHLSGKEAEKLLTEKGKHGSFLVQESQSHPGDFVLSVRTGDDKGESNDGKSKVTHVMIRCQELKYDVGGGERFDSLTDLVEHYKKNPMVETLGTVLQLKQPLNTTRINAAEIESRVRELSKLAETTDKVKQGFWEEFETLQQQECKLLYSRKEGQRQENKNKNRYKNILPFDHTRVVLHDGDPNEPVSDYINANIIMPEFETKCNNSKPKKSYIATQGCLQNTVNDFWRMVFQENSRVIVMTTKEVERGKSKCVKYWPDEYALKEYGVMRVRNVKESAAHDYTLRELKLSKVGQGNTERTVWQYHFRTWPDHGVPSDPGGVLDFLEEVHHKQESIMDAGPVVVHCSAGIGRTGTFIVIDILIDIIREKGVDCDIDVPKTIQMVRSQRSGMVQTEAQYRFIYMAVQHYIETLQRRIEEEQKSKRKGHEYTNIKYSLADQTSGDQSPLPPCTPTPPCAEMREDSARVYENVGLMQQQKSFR
The test is described as follows: SHP2 activation assay using phosphopeptides (DiFMUP), SHP2 R138Q. In kind it is biochemical. Particulars: activation of full-length SHP2 R138Q (0.05 nM) by phosphopeptide; DiFMUP substrate; HEPES pH 7.2 assay buffer; mean of N (column N). The protocol: Emitted fluorescence at 455nm was recorded every 25 seconds in a span of 50 minutes using a BioTek Synergy Neo2 multi-mode reader. […]
In all cases, the linear region of the reaction progress curve was determined by visual inspection and fit to a line. These slopes were converted from absorbance or fluorescence units as a function of time to product formation as a function of time using standard curves measured with the reaction products (p-nitrophenol and 6,8-difluoro-7-hydroxy-4-methylcoumarin). […]
SHP2 activation assays using phosphopeptides
Full-length SHP2 constructs were diluted in assay buffer (60 mM HEPES pH 7.2, 75 mM KCl, 75 mM NaCl,1 mM EDTA, 0.05% Tween-20, with 0.5 mM TCEP freshly added) to a 2X concentration of 0.1 nM. Peptides were serially diluted in assay buffer, with the last point of the concentration series fully without peptide. 15 μL of peptide and 15 μL of 800 μM DiFMUP was added to a black 96-well half area plate. Right before starting the plate reader assay, 30 μL SHP2 was added to each well a Supplementary Information - page 4 of 18 […]
final concentration of 0.05nM. Kinetic measurements (Ex 358/Em […]) were taken on a BioTek Neo2 plate reader every 25 seconds for 6 minutes.
Cloning of the PD-1 ITIM scanning mutagenesis library […]
described previously for other peptide display libraries in the eCPX system (2, 4). A series of oligonucleotides spanning the peptide-coding sequence was synthesized with a different NNS codon in place of each wild-type codon (11 oligonucleotides in total). These degenerate primers were pooled then used to amplify a library of linear DNA encoding mutant ITIM fusions to the eCPX scaffold protein.
This library was then cloned into the pBAD33 vector used for surface display.
SH2 specificity profiling using bacterial peptide display
Preparation of bacterial cells
Electrocompetent MC1061 cells were transformed with ~100 ng of the respective library. After 1 hour recovery in 1 mL LB, cells were further diluted into 250 mL LB + 0.1% chloramphenicol. 1.8 mL of overnight culture was used to inoculate 100 mL LB + 0.1% chloramphenicol, and grown until OD600 reached 0.5. 20 mL of cell suspension was induced at 25 °C using a final concentration of 0.4% arabinose until the OD600 ~ 1 (after approximately 4 hours). The cells were spun down at 4000 rpm for 15 minutes, and the pellet was resuspended in PBS so that the OD600 ~1.5. The cells were stored in the fridge and used within a week.
For each sample, 75 μL of Dynabeads™ FlowComp™ Flexi Kit were washed twice in 1 mL SH2 buffer (50 mM HEPES pH 7.5, 150 mM NaCl, 1 mM TCEP, and 0.2% BSA) on a magnetic rack.
The beads were then resuspended in 75 μL of SH2 buffer. SH2 domains were thawed quickly and 20 μM of protein was added to the beads. SH2 buffer was added up to 150 μL, and the suspension was incubated for 1 hour at 4 °C while rotating. After 1 hour, the suspension was placed on a magnetic rack and washed twice with 1 mL SH2 buffer.
Preparing the phosphorylated cells
150 μL of prepared cells per sample were spun down for 4000 rpm for 5 minutes at 4 °C.
Kinase screen buffer was prepared (50 mM Tris, 10 mM magnesium chloride, 150 mM sodium chloride; add 2 mM sodium orthovanadate and 1 mM TCEP fresh) and the cells of each sample were resuspended in 100 μL kinase screen buffer. Kinases c-Src, c-Abl, AncSZ, Eph1B were added to a final concentration of 2.5 µM each, creatine phosphate was added to a final concentration of 5 mM, and phosphokinase was added to a final concentration of 50 µg/mL. The suspension was incubated at 37 °C for 5 minutes before ATP was added to a final concentration of 1 mM. This mixture was incubated at 37 °C for 3 hours. After 3 hours, EDTA was added to a final concentration of 25 mM to quench the reaction. The input library control sample was not phosphorylated. These cells were spun down at 4000 rpm for 15 minutes at 4 °C. The cells were then resuspended in 100 µL of SH2 buffer […]
Take `CC[C@H](C)[C@H](NC(=O)[C@@H](NC(=O)[C@H](C)NC(=O)[C@H](Cc1ccc(OP(=O)(O)O)cc1)NC(=O)[C@@H](NC(=O)[C@@H]1CCCN1C(=O)[C@H](CCC(=O)O)NC(=O)[C@@H]1CCCN1C(=O)[C@H](CO)NC(=O)[C@@H](NC(C)=O)C(C)C)[C@@H](C)CC)[C@@H](C)O)C(=O)N[C@@H](CC(=O)O)C(=O)N[C@@H](CC(=O)O)C(=O)N[C@@H](CC(C)C)C(N)=O`: the EC50 is 27.3 µM. For `CC(=O)N[C@@H](CO)C(=O)N[C@H](C(=O)NCC(=O)N[C@@H](CO)C(=O)N[C@H](C(=O)N[C@@H](CC(=O)O)C(=O)N[C@@H](Cc1ccc(OP(=O)(O)O)cc1)C(=O)N[C@@H](CC(C)C)C(=O)N[C@@H](C)C(=O)N[C@@H](CC(C)C)C(=O)N[C@@H](CC(=O)O)C(=O)N[C@@H](Cc1ccccc1)C(=O)N[C@@H](CCC(N)=O)C(N)=O)C(C)C)[C@@H](C)O`, the EC50 is 5.98 µM. In the case of `CC[C@H](C)[C@H](NC(=O)[C@H](Cc1ccc(OP(=O)(O)O)cc1)NC(=O)[C@H](CC(N)=O)NC(=O)[C@H](CC(C)C)NC(=O)CNC(=O)[C@H](CC(N)=O)NC(=O)[C@H](CCC(=O)O)NC(=O)[C@H](CC(C)C)NC(C)=O)C(=O)N[C@@H](CC(=O)O)C(=O)N[C@@H](CC(C)C)C(=O)N[C@@H](CC(=O)O)C(=O)N[C@@H](CC(C)C)C(=O)N[C@H](C(N)=O)C(C)C` it was 1.43 µM. In the case of `CC[C@H](C)[C@H](NC(=O)[C@H](CC(N)=O)NC(=O)[C@@H](NC(=O)[C@H](Cc1ccc(OP(=O)(O)O)cc1)NC(=O)[C@H](CCC(=O)O)NC(=O)CNC(=O)[C@@H]1CCCN1C(=O)[C@H](CO)NC(=O)[C@H](CCCCN)NC(=O)[C@@H]1CCCN1C(C)=O)C(C)C)C(=O)N[C@@H](CCC(=O)O)C(=O)N[C@@H](Cc1ccccc1)C(=O)NCC(N)=O` it was 29.6 µM. To `CSCC[C@H](NC(=O)[C@H](CC(C)C)NC(=O)[C@H](CCC(N)=O)NC(=O)[C@H](C)NC(=O)[C@H](Cc1ccc(OP(=O)(O)O)cc1)NC(=O)[C@H](CC(N)=O)NC(=O)[C@H](CC(C)C)NC(=O)[C@H](C)NC(=O)[C@H](C)NC(=O)[C@H](CCCCN)NC(=O)[C@H](CCCCN)NC(C)=O)C(=O)N[C@@H](Cc1ccccc1)C(=O)N1CCC[C@H]1C(N)=O` belongs 4.2 µM; to `CC(=O)N[C@@H](C)C(=O)N[C@@H](CCCCN)C(=O)N[C@@H](CO)C(=O)NCC(=O)N[C@@H](C)C(=O)N[C@H](C(=O)N[C@@H](Cc1ccc(OP(=O)(O)O)cc1)C(=O)N[C@@H](CO)C(=O)N[C@@H](CCC(=O)O)C(=O)N[C@@H](CC(C)C)C(=O)N[C@@H](CC(N)=O)C(=O)N[C@@H](Cc1ccccc1)C(=O)NCC(N)=O)C(C)C`, 166 µM; to `CC(=O)N1CCC[C@H]1C(=O)N[C@H](C(=O)N[C@@H](Cc1ccccc1)C(=O)N[C@@H](CO)C(=O)N[C@H](C(=O)N[C@@H](CC(=O)O)C(=O)N[C@@H](Cc1ccc(OP(=O)(O)O)cc1)C(=O)NCC(=O)N[C@@H](CCC(=O)O)C(=O)N[C@@H](CC(C)C)C(=O)N[C@@H](CC(=O)O)C(=O)N[C@@H](Cc1ccccc1)C(=O)N[C@@H](CCC(N)=O)C(N)=O)C(C)C)C(C)C`, 6.55 µM. As to `CC[C@H](C)[C@H](NC(=O)[C@@H](NC(=O)[C@H](C)NC(=O)[C@H](Cc1ccc(OP(=O)(O)O)cc1)NC(=O)[C@H](CCC(=O)O)NC(=O)[C@@H](NC(=O)[C@H](CCC(N)=O)NC(=O)[C@H](CCC(=O)O)NC(=O)[C@@H]1CCCN1C(=O)[C@@H](NC(C)=O)C(C)C)[C@@H](C)O)[C@@H](C)O)C(=O)N[C@H](C(=O)N[C@@H](Cc1ccccc1)C(=O)N1CCC[C@H]1C(N)=O)C(C)C`, the EC50 was determined as 6.26 µM. To `CC[C@H](C)[C@H](NC(=O)[C@H](CC(=O)O)NC(=O)[C@H](C)NC(=O)[C@H](Cc1ccc(OP(=O)(O)O)cc1)NC(=O)[C@H](CCCCN)NC(=O)[C@@H](NC(=O)[C@H](CC(=O)O)NC(=O)CNC(=O)[C@H](CCCCN)NC(=O)[C@H](CCSC)NC(C)=O)C(C)C)C(=O)N[C@@H](CCC(=O)O)C(=O)N[C@@H](CO)C(=O)N[C@@H](CO)C(N)=O` belongs 120 µM.
